In US20240158446A1, “CYCLIC COMPOUND HAVING SELECTIVE INHIBITORY ACTION ON KRAS OVER HRAS AND NRAS” (CHUGAI SEIYAKU KABUSHIKI KAISHA, priority 2021, published 2024):
Where a SMILES comes first, the peptide text is derived from it. Bridges are numbered along the chain shown (N, C = ends). [ ]: non-standard residue; d: D form. The star is where a group is joined. hPhe(3-Cl-4-CF3) = N[C@@H](CCc1ccc(C(F)(F)F)c(Cl)c1)C(=O)O; NPrPhe(4-CF3) = CCCN[C@@H](Cc1ccc(C(F)(F)F)cc1)C(=O)O; NMeI = CC[C@H](C)[C@H](NC)C(=O)O; NMeD = CN[C@@H](CC(=O)O)C(=O)O; NMeL = CN[C@@H](CC(C)C)C(=O)O; Morpholide = C1CN(*)CCO1; Ac5c = NC1(C(=O)O)CCCC1; Sar = CNCC(=O)O

Legend:
[1] = system: human lung cancer strain NCI-H441; assay: cells; details: NCI-H441, 96 h, read-out: NCI-H441 IC50 (nM), NCI-H441 cell proliferation, 4 days, CellTiter-Glo;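 also: cell proliferation inhibition after four days measured by CellTiter-Glo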
[2] = molecular target: GDP-bound NRAS wild-type protein (Homo sapiens, UniProt P01111); assay: Binding to NRAS by surface plasmon resonance (SPR), Single Cycle Kinetics; details: ratio of KD for GDP-bound NRAS wild-type protein to KD for KRAS, SPR
Chain of GDP-bound NRAS wild-type protein (P01111 whole entry): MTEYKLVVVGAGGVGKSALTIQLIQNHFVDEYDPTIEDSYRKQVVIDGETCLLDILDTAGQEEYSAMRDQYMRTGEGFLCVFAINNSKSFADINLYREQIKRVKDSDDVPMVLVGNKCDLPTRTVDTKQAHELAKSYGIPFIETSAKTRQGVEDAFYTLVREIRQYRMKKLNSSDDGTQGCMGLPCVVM

[3] = molecular target: GDP-bound KRAS wild-type protein (Homo sapiens, UniProt P01116); assay: Binding to KRAS by surface plasmon resonance (SPR), Single Cycle Kinetics; details: SPR, Single Cycle Kinetics, GDP-bound KRAS wild-type protein; read-out: KRAS KD
Chain of GDP-bound KRAS wild-type protein (P01116 whole entry): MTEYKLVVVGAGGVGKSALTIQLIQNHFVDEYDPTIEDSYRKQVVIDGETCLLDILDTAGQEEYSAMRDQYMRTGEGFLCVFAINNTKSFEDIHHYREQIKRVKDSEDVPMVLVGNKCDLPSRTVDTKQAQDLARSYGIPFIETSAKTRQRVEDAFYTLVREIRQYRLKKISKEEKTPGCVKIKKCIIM

[4] = molecular target: GDP-bound HRAS wild-type protein (Homo sapiens, UniProt P01112); assay: Binding to HRAS by surface plasmon resonance (SPR), Single Cycle Kinetics; details: ratio of KD for GDP-bound HRAS wild-type protein to KD for KRAS, SPR
Chain of GDP-bound HRAS wild-type protein (P01112 whole entry): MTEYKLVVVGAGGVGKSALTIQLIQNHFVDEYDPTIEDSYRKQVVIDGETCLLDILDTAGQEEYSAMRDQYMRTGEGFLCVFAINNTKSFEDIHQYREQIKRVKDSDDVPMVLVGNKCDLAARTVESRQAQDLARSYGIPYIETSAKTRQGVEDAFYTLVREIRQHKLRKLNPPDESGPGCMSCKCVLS

| Structure (SMILES) | IC50 [1] [nM] | Kd [3] [nM] | NRAS/KRAS (KD ratio) [2] | HRAS/KRAS (KD ratio) [4] |
| --- | --- | --- | --- | --- |
| CCO[C@@H]1C[C@H]2C(=O)NC3(CCC3)C(=O)N(C)[C@@H](C3CCCC3)C(=O)N3CCC[C@@H]3CC(=O)N(C)[C@@H](CC3CC3)C(=O)N[C@@H]([C@@H](C)CC)C(=O)N(C)CC(=O)N(C)[C@H]3C/C=C\CCN(C3=O)[C@@H](Cc3ccc(C(F)(F)F)cc3)C(=O)N(C)CC(=O)N[C@@H](CCc3cc(F)c(C(F)(F)F)c(F)c3)C(=O)N2C1 [PP1613] | 14.7 | 0.15 | B (a compound having 3 or more and less than 10 is denoted as B) | B (a compound having 3 or more and less than 10 is denoted as B) |
| CC[C@H](C)[C@@H]1NC(=O)[C@H](CC(C)C)N(C)C(=O)C[C@@H](C(=O)N(C)C)N(C)C(=O)[C@H](C2CCCC2)N(C)C(=O)C2(CC(C)(C)C2)NC(=O)[C@@H]2CC(F)(F)CN2C(=O)[C@H](CCc2cc(F)c(C(F)(F)F)c(F)c2)NC(=O)CN(C)C(=O)[C@H](Cc2ccc(C(F)(F)F)cc2)N2CC/C=C\C[C@@H](C2=O)N(C)C(=O)CN(C)C1=O [PP1715] | 2.7 | 0.061 | AA (a compound having 20 or more is denoted as AA) | A (a compound having 10 or more and less than 20 is denoted as A) |
| CCO[C@@H]1C[C@H]2C(=O)NC3(CC(F)(F)C3)C(=O)N(C)[C@@H](C(CC)CC)C(=O)N3CCC[C@@H]3CC(=O)N(C)[C@@H](CC)C(=O)N[C@@H]([C@@H](C)CC)C(=O)N(C)CC(=O)N(C)[C@H]3C/C=C\CCN(C3=O)[C@@H](Cc3ccc(C(F)(F)F)cc3)C(=O)N(C)CC(=O)N[C@@H](CCc3cc(F)c(C(F)(F)F)c(F)c3)C(=O)N2C1 [PP1608] | 70.1 | 0.67 | A (a compound having 10 or more and less than 20 is denoted as A) | A (a compound having 10 or more and less than 20 is denoted as A) |
| CCC[C@H]1C(=O)N[C@@H]([C@@H](C)CC)C(=O)N(C)CC(=O)N(C)[C@H]2C/C=C\CCN(C2=O)[C@@H](Cc2ccc(C(F)(F)F)cc2)C(=O)N(C)CC(=O)N[C@@H](CCc2ccc(C(F)(F)F)c(OC)c2)C(=O)N2C[C@H](OCC)C[C@H]2C(=O)NC2(CC(C)(C)C2)C(=O)N(C)[C@@H](C2CCCC2)C(=O)N(C)[C@H](C(=O)N(C)CC)CC(=O)N1C [PP1676] | 5 | 0.12 | A (a compound having 10 or more and less than 20 is denoted as A) | A (a compound having 10 or more and less than 20 is denoted as A) |
| CCCN(C)C(=O)[C@@H]1CC(=O)N(C)[C@@H](CC)C(=O)N[C@@H]([C@@H](C)CC)C(=O)N(C)CC(=O)N(C)[C@H]2C/C=C\CCN(C2=O)[C@@H](Cc2ccc(C(F)(F)F)cc2)C(=O)N(C)CC(=O)N[C@@H](CCc2cc(F)c(C(F)(F)F)c(F)c2)C(=O)N2C[C@H](OCC)C[C@H]2C(=O)NC2(CC(F)(F)C2)C(=O)N(C)[C@@H](C2CCCC2)C(=O)N1C [PP1732] | 6.4 | 0.099 | AA (a compound having 20 or more is denoted as AA) | A (a compound having 10 or more and less than 20 is denoted as A) |
| CCO[C@@H]1C[C@H]2C(=O)NC3(CC(C)(C)C3)C(=O)N(C)[C@@H](C3CCCC3)C(=O)N(C)[C@H](C(=O)N3CCCCC3)CC(=O)N(C)[C@@H](CC)C(=O)N[C@@H]([C@@H](C)CC)C(=O)N(C)CC(=O)N(C)[C@H]3C/C=C\CCN(C3=O)[C@@H](Cc3ccc(C(F)(F)F)cc3)C(=O)N(C)CC(=O)N[C@@H](CCc3cc(F)c(C(F)(F)F)c(F)c3)C(=O)N2C1 [PP1945] | 33.8 | 0.31 | AA (a compound having 20 or more is denoted as AA) | A (a compound having 10 or more and less than 20 is denoted as A) |
| C#CC[C@H]1C(=O)N[C@@H]([C@@H](C)CC)C(=O)N(C)CC(=O)N(C)[C@H]2C/C=C\CCN(C2=O)[C@@H](Cc2ccc(C(F)(F)F)cc2)C(=O)N(C)CC(=O)N[C@@H](CCc2ccc(C(F)(F)F)c(OC)c2)C(=O)N2C[C@H](OCC)C[C@H]2C(=O)NC2(CC(C)(C)C2)C(=O)N(C)[C@@H](C2CCCC2)C(=O)N(C)[C@H](C(=O)N(C)C)CC(=O)N1C [PP1677] | 3.4 | 0.042 | A (a compound having 10 or more and less than 20 is denoted as A) | A (a compound having 10 or more and less than 20 is denoted as A) |

More lines, main results first:

| IC50 [1] [nM] | Kd [3] [nM] | Structure (SMILES) | NRAS/KRAS (KD ratio) [2] | HRAS/KRAS (KD ratio) [4] |
| --- | --- | --- | --- | --- |
| 5.3 | 0.1 | CCCN(C)C(=O)[C@@H]1CC(=O)N(C)[C@@H](CCOC)C(=O)N[C@@H]([C@@H](C)CC)C(=O)N(C)CC(=O)N(C)[C@H]2C/C=C\CCN(C2=O)[C@@H](Cc2ccc(C(F)(F)F)cc2)C(=O)N(C)CC(=O)N[C@@H](CCc2ccc(C(F)(F)F)c(OC)c2)C(=O)N2C[C@H](OCC)C[C@H]2C(=O)NC2(CCC2)C(=O)N(C)[C@@H](C2CCCC2)C(=O)N1C [PP2018] | A (a compound having 10 or more and less than 20 is denoted as A) | B (a compound having 3 or more and less than 10 is denoted as B) |
| 7.1 | 0.31 | CCCN(C)C(=O)[C@@H]1CC(=O)N(C)[C@@H](CC(F)F)C(=O)N[C@@H]([C@@H](C)CC)C(=O)N(C)CC(=O)N(C)[C@H]2C/C=C\CCN(C2=O)[C@@H](Cc2ccc(C(F)(F)F)cc2)C(=O)N(C)CC(=O)N[C@@H](CCc2cc(F)c(Cl)c(F)c2)C(=O)N2C[C@H](OCC)C[C@H]2C(=O)NC2(CC(C)(C)C2)C(=O)N(C)[C@@H](C2CCCC2)C(=O)N1C [PP1757] | AA (a compound having 20 or more is denoted as AA) | A (a compound having 10 or more and less than 20 is denoted as A) |
| 6.3 | 0.13 | CC[C@H](C)[C@@H]1NC(=O)[C@H](CC2CC2)N(C)C(=O)C[C@@H](C(=O)N(C)C)N(C)C(=O)[C@H](C2CCCC2)N(C)C(=O)C2(CC(C)(C)C2)NC(=O)[C@@H]2C[C@H](C)CN2C(=O)[C@H](CCc2ccc(C(F)(F)F)c(OC)c2)NC(=O)CN(C)C(=O)[C@H](Cc2ccc(C)cc2)N2CC/C=C\C[C@@H](C2=O)N(C)C(=O)CN(C)C1=O [PP1898] | B (a compound having 3 or more and less than 10 is denoted as B) | B (a compound having 3 or more and less than 10 is denoted as B) |
| 5.2 | 0.096 | CC[C@H](C)[C@@H]1NC(=O)[C@H](CC(C)C)N(C)C(=O)C[C@@H](C(=O)N(C)C)N(C)C(=O)[C@H](C2CCCC2)N(C)C(=O)C2(CCC2)NC(=O)[C@@H]2C[C@@H](C)CN2C(=O)[C@H](CCc2ccc(C(F)(F)F)c(Cl)c2)NC(=O)CN(C)C(=O)[C@H](Cc2ccc(C)cc2)N2CC/C=C\C[C@@H](C2=O)N(C)C(=O)CN(C)C1=O [PP1854] | A (a compound having 10 or more and less than 20 is denoted as A) | A (a compound having 10 or more and less than 20 is denoted as A) |
| 5.4 | 0.034 | CCO[C@@H]1C[C@H]2C(=O)N(C)C3(CCC3)C(=O)N(C)[C@@H](C3CCCC3)C(=O)N(C)[C@H](C(=O)N(C)C)CC(=O)N(C)[C@@H](CC)C(=O)N[C@@H]([C@@H](C)CC)C(=O)N(C)CC(=O)N(C)[C@H]3C/C=C\CCN(C3=O)[C@@H](Cc3ccc(C(F)(F)F)cc3)C(=O)N(C)CC(=O)N[C@@H](CCc3cc(F)c(C(F)(F)F)c(F)c3)C(=O)N2C1 [PP1779] | A (a compound having 10 or more and less than 20 is denoted as A) | B (a compound having 3 or more and less than 10 is denoted as B) |
| 12.9 | 0.78 | CCC[C@H]1C(=O)N[C@@H]([C@@H](C)CC)C(=O)N(C)CC(=O)N(C)[C@H]2C/C=C\CCN(C2=O)[C@@H](Cc2ccc(C(F)(F)F)cc2)C(=O)N(C)CC(=O)N[C@@H](CCc2cc(F)c(C(F)(F)F)c(F)c2)C(=O)N2C[C@H](OCC)C[C@H]2C(=O)NC2(CCC2)C(=O)N(C)[C@@H](C2CCCC2)C(=O)N(CCC)[C@H](C(=O)N(C)C)CC(=O)N1C [PP1769] | A (a compound having 10 or more and less than 20 is denoted as A) | A (a compound having 10 or more and less than 20 is denoted as A) |
| 17.4 | 0.36 | CCCN1C(=O)CN(C)C(=O)CN(C)C(=O)[C@H]([C@@H](C)CC)NC(=O)[C@H](CC(C)C)N(C)C(=O)C[C@@H](C(=O)N2CCOCC2)N(C)C(=O)[C@H]([C@@H](C)CC)N(C)C(=O)C2(CCCC2)NC(=O)[C@@H]2CCCN2C(=O)[C@H](CCc2ccc(C(F)(F)F)c(Cl)c2)NC(=O)CN(C)C(=O)[C@@H]1Cc1ccc(C(F)(F)F)cc1 [PP1926] ([NMeL]I[Sar][Sar][NPrPhe(4-CF3)][Sar][hPhe(3-Cl-4-CF3)]P[Ac5c][NMeI][NMeD]-Morpholide; lactam N-11) | B (a compound having 3 or more and less than 10 is denoted as B) | B (a compound having 3 or more and less than 10 is denoted as B) |
| 8.8 | 0.063 | CCO[C@@H]1C[C@H]2C(=O)NC3(CC(C)(C)C3)C(=O)N(C)[C@@H](C3CCCC3)C(=O)N(C)[C@H](C(=O)N(C)C)CC(=O)N(C)[C@@H](CC)C(=O)N[C@@H]([C@@H](C)CC)C(=O)N(C)CC(=O)N(C)[C@H]3C/C=C\CCN(C3=O)[C@@H](Cc3ccc(C)cc3)C(=O)N(C)CC(=O)N[C@@H](CCc3ccc(C(F)(F)F)c(Cl)c3)C(=O)N2C1 [PP1878] | A (a compound having 10 or more and less than 20 is denoted as A) | A (a compound having 10 or more and less than 20 is denoted as A) |
